Experimental data reported in patent US20220370453A1 (Storm Therapeutics Ltd, priority 2019, published 2022).

Key:
[1] = target: T1, BCDIN3D (Homo sapiens, UniProt Q7Z5W3); experiment: BCDIN3D IC50 RFMS (RapidFire) assay with mini-helix; assay type: biochemical; conditions: 25 nM enzyme
T1 sequence (Q7Z5W3 1-292): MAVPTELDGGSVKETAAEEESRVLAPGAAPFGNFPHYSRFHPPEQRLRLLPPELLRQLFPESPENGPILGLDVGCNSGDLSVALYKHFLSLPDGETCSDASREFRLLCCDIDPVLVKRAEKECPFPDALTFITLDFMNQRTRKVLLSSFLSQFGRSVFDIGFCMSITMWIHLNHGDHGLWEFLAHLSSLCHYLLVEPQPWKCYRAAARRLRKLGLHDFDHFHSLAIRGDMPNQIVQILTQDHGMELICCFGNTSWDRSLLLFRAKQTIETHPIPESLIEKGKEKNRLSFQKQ
How it was run: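 25 nM enzyme preincubated 10 min at room temperature with compound (1% DMSO) in 25 mM Tris pH 8.0, 10 mM DTT, 1 mM EDTA, 0.03% BSA. Reaction started with 0.2 μM mini-helix plus 6 μM SAM, run 1 h at 37 °C, quenched with TCA; SAH product quantified by RapidFire MS against isotopic SAH standards.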

[2] = target: T1, BCDIN3D; experiment: BCDIN3D InCellPulse thermal stability assay in transfected A549 cells; assay type: cell-based; conditions: heat shock 58° C. 15 min
How it was run: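 A549 cells transiently expressing BCDIN3D N-terminally fused to ePL ProLabel tag, 1500 cells/well, pre-incubated 1 h at 37 °C with compound (0.6% DMSO). Heat shock 58 °C for 15 min; remaining soluble fusion detected by split β-galactosidase complementation luminescence.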

[3] = mini-helix 0.2 μM and SAM 6 μM as substrates, 1 hr at 37° C.
[4] = A549 cells transiently transfected with ePL-BCDIN3D, 1 h pre-incubation

Compound | IC50 ([1]; mini-helix substrate 0.2 μM, SAM 6 μM) | IC50 ([2]; transiently transfected A549 cells) | IC50 [1, 3] | IC50 [2, 4]
Cn1ncc2c(NC(C)(C)C)nc(NCC(N)c3ccc(C4CC4)cc3)nc21 (stereo not shown) [Compound 5.33, N6-[2-amino-2-(4-cyclopropylphenyl)ethyl]-N4-tert-butyl-1-methyl-1H-pyrazolo[3,4-d]pyrimidine-4,6-diamine] | 0.13 µM | 0.15 µM | – | –
CCOc1nc(NCC(N)c2ccccc2)nc2c1cnn2C (stereo not shown) [Compound 6.01, N′-(4-Ethoxy-1-methylpyrazolo[3,4-d]pyrimidin-6-yl)-1-phenylethane-1,2-diamine] | – | – | 2.51 µM | 6.61 µM
CC(C)Oc1nc(NCC(N)c2ccccc2)nc2c1cnn2C (stereo not shown) [Compound 6.04, N′-(1-methyl-4-propan-2-yloxypyrazolo[3,4-d]pyrimidin-6-yl)-1-phenylethane-1,2-diamine] | – | – | 2.62 µM | 4.15 µM
Cn1ncc2c(OC(C)(C)C)nc(NCC(N)c3ccccc3)nc21 (stereo not shown) [Compound 6.05, N′-(4-tert-butoxy-1-methyl-pyrazolo[3,4-d]pyrimidin-6-yl)-1-phenyl-ethane-1,2-diamine] | – | – | 4.16 µM | 5.14 µM
Cc1ccc(CNc2nc(N[C@H]3CCCC[C@H]3N)nc3c2cnn3C)cc1Cl [Compound 7.02, 6-N-[(1S,2R)-2-aminocyclohexyl]-4-N-[(3-chloro-4-methylphenyl)methyl]-1-methylpyrazolo[3,4-d]pyrimidine-4,6-diamine] | – | – | 0.998 µM | 0.899 µM
Cn1ncc2c(NC3CC3)nc(NC[C@H](N)c3ccccc3)nc21 [Compound 7.04, N6-[(2R)-2-amino-2-phenyl-ethyl]-N4-cyclopropyl-1-methyl-pyrazolo[3,4-d]pyrimidine-4,6-diamine] | – | – | 3.91 µM | 2.97 µM
Cn1ncc2c(Nc3ccc(F)cc3)nc(NC[C@H](N)c3ccccc3)nc21 [Compound 7.05, N6-[(2R)-2-amino-2-phenyl-ethyl]-N4-(4-fluorophenyl)-1-methyl-pyrazolo[3,4-d]pyrimidine-4,6-diamine] | – | – | 0.241 µM | 0.169 µM
Cn1ncc2c(Nc3ccc(F)cc3)nc(NC[C@@H](N)c3ccccc3)nc21 [Compound 7.06, N6-[(2S)-2-amino-2-phenyl-ethyl]-N4-(4-fluorophenyl)-1-methyl-pyrazolo[3,4-d]pyrimidine-4,6-diamine] | – | – | 2.19 µM | 2.93 µM
Cn1ncc2c(NCC(F)(F)F)nc(NC[C@@H](N)c3ccccc3)nc21 [Compound 7.07, N6-[(2S)-2-amino-2-phenyl-ethyl]-1-methyl-N4-(2,2,2-trifluoroethyl)pyrazolo[3,4-d]pyrimidine-4,6-diamine] | – | – | 5.62 µM | 4.12 µM
Cn1ncc2c(Nc3ccc(C(F)(F)F)nc3)nc(NC[C@H](N)c3ccccc3)nc21 [Compound 7.08, N6-[(2R)-2-amino-2-phenyl-ethyl]-1-methyl-N4-[6-(trifluoromethyl)-3-pyridyl]pyrazolo[3,4-d]pyrimidine-4,6-diamine] | – | – | 0.0334 µM | 0.223 µM
Cn1ncc2c(Nc3ccc(C(F)(F)F)nc3)nc(NC[C@@H](N)c3ccccc3)nc21 [Compound 7.09, N6-[(2S)-2-amino-2-phenyl-ethyl]-1-methyl-N4-[6-(trifluoromethyl)-3-pyridyl]pyrazolo[3,4-d]pyrimidine-4,6-diamine] | – | – | 0.209 µM | 0.414 µM
Cn1ncc2c(NC(C)(C)C)nc(NC[C@@H](N)c3ccccc3F)nc21 [Compound 7.11, N6-[(2S)-2-amino-2-(2-fluorophenyl)ethyl]-N4-tert-butyl-1-methyl-pyrazolo[3,4-d]pyrimidine-4,6-diamine] | – | – | 0.181 µM | 4.18 µM
Cc1ccc(CNc2nc(NC[C@@H](N)CF)nc3c2cnn3C)cc1Cl [Compound 7.14, 6-N-[(2R)-2-amino-3-fluoropropyl]-4-N-[(3-chloro-4-methylphenyl)methyl]-1-methylpyrazolo[3,4-d]pyrimidine-4,6-diamine] | – | – | 5.65 µM | 6.32 µM
Cn1ncc2c(NC(C)(C)C)nc(NC[C@H](N)c3ccc(F)cc3)nc21 [Compound 7.18, N6-[(2R)-2-amino-2-(4-fluorophenyl)ethyl]-N4-tert-butyl-1-methyl-1H-pyrazolo[3,4-d]pyrimidine-4,6-diamine] | – | – | 0.33 µM | 0.41 µM
